{
  "source": "paper PMC9271885",
  "about": "(eBioMedicine, 2022)",
  "key": {"[1]": {"assay": "Clinical course of the disease in infected hamsters (normalized weight, clinical signs)", "format": "in vivo, Syrian hamsters", "protocol": "Three-week-old female Syrian hamsters were provided by Janvier Labs (SPF status). Animals were maintained in ISOcage P - Bioexclusion System (Techniplast) with unlimited access to water/food and 14h/10h light/dark cycle. A wooden gnawing block and extra bedding material was provided as cage enrichment. Animals were weighed and monitored daily for the duration of the study to detect the appearance of any clinical signs of illness/suffering. General anesthesia was obtained with isoflurane (Isoflurin®, Axience). Euthanasia, which was also realized under general anesthesia, was performed by cervical dislocation.\nGroups of 6 hamsters were intranasally infected with 10^4 TCID50 of virus. a Experimental timeline. b, f, j Viral replication in lung based on infectious titers (measured using a TCID50 assay) expressed in TCID50/g of lung (n=6 animals/group). c, g, k Viral replication in lung based on viral RNA yields (measured using an RT-qPCR assay) expressed in viral genome copies/g of lung (n=6 animals/group). d, h, l Plasma viral loads (measured using an RT-qPCR assay) are expressed in viral genome copies/mL of plasma (the dotted line indicates the detection threshold of the assay) (n=6 animals/group). e, i, m Clinical course of the disease (n=6 animals/group). Normalized weight at day n was calculated as follows: % of initial weight of the animal at day n. Data represent mean ± SD (Details in Supplementary Data 2)."}, "SARS-CoV-2": {"test_system": "SARS-CoV-2", "assay": "Hamster model of SARS-CoV-2 infection, intranasal NTZ treatment (lung, plasma, nasal turbinates)", "format": "in vivo, Syrian hamsters", "set-up": "Lung Infectious titers / Lung Viral RNA yields / Plasmatic viral RNA yields / Nasal Turbinates Infectious titers / Nasal Turbinates Viral RNA yields: unit not given here"}, "[2]": {"conditions": "cited from earlier work"}, "[3]": {"conditions": "Nitazoxanide IN 2.8mg/kg/day TID, inoculum 104 TCID50, sacrifice day 3, Figure 5, individual animals"}, "[4]": {"conditions": "Nitazoxanide IN 2.8mg/kg/day TID, inoculum 104 TCID50, sacrifice day 3, Figure SF 2, individual animals"}, "[5]": {"conditions": "Nitazoxanide per os 500mg/kg/day BID, inoculum 104 TCID50, sacrifice day 3, Figure 3, individual animals"}, "[6]": {"conditions": "Nitazoxanide per os 500mg/kg/day BID, inoculum 104 TCID50, sacrifice day 5, Figure 3, individual animals"}, "[7]": {"conditions": "Nitazoxanide per os 750mg/kg/day BID, inoculum 104 TCID50, sacrifice day 3, Figure 3, individual animals"}, "[8]": {"conditions": "NTZ emulsion 2.8mg/kg/day TID intranasal, 3 dpi, first experiment"}},
  "note": "Values joined by “and” are separate entries in the source; they are usually repeats but may differ in a detail not shown here. Equal values may be shown once.",
  "data": [
    {"smiles": "CC(=O)Oc1ccccc1C(=O)Nc1ncc([N+](=O)[O-])s1", "note": "[NTZ, Nitazoxanide]", "values": [
      {"measurement": "mean normalized weight vs untreated animals", "setting": "[1]; NTZ 2.8mg/kg/day TID intranasal, 1 to 3 dpi, first experiment", "value": "significantly lower than that of untreated animals"},
      {"measurement": "mean normalized weight vs untreated animals", "setting": "[1]; NTZ 2.8mg/kg/day TID intranasal, 1 to 3 dpi, repeated experiment", "value": "significantly lower than that of untreated animals"},
      {"measurement": "mean normalized weight vs untreated animals", "setting": "[1]; NTZ 500mg/kg/day BID oral for 3 days, at 3 dpi", "value": "significantly lower than that of untreated animals"},
      {"measurement": "clinical signs of illness/suffering compared to untreated animals", "setting": "[1]; NTZ 500mg/kg/day BID oral for 4 days, followed to 5 dpi", "value": "did not show any clinical signs of illness/suffering"},
      {"measurement": "mean normalized weight vs untreated animals", "setting": "[1]; NTZ 750mg/kg/day TID oral for 3 days, at 2 dpi", "value": "significantly lower than that of untreated animals"},
      {"measurement": "Normalized weights Day 0", "setting": "[1]; [3]", "value": 100},
      {"measurement": "Normalized weights Day 1", "setting": "[1]; [3]", "value": "90.2 and 91.4 and 94.7 and 92.3 and 86.3 and 91.5"},
      {"measurement": "Normalized weights Day 2", "setting": "[1]; [3]", "value": "81.4 and 83.1 and 86.9 and 88.1 and 80.0 and 82.4"},
      {"measurement": "Normalized weights Day 3", "setting": "[1]; [3]", "value": 70.4},
      {"measurement": "Normalized weights Day 0", "setting": "[1]; [4]", "value": 100},
      {"measurement": "Normalized weights Day 1", "setting": "[1]; [4]", "value": "92.6 and 97.1 and 95.9 and 101.1 and 97.4 and 94.0"},
      {"measurement": "Normalized weights Day 2", "setting": "[1]; [4]", "value": "84.7 and 91.2 and 89.0 and 92.2 and 87.0 and 85.8"},
      {"measurement": "Normalized weights Day 0", "setting": "[1]; [5]", "value": 100},
      {"measurement": "Normalized weights Day 1", "setting": "[1]; [5]", "value": "103.3 and 103.7 and 101.9 and 97.1 and 103.5 and 104.5"},
      {"measurement": "Normalized weights Day 2", "setting": "[1]; [5]", "value": "100.2 and 95.2 and 98.6 and 92.0 and 97.9 and 99.6"},
      {"measurement": "Normalized weights Day 3", "setting": "[1]; [5]", "value": "97.9 and 94.1 and 93.4 and 93.2"},
      {"measurement": "Normalized weights Day 0", "setting": "[1]; [6]", "value": 100},
      {"measurement": "Normalized weights Day 1", "setting": "[1]; [6]", "value": "103.8 and 103.9 and 104.9 and 104.4 and 104.6 and 102.8"},
      {"measurement": "Normalized weights Day 2", "setting": "[1]; [6]", "value": "96.9 and 95.0 and 102.9 and 95.3 and 100.2"},
      {"measurement": "Normalized weights Day 3", "setting": "[1]; [6]", "value": "96.2 and 96.1"},
      {"measurement": "Normalized weights Day 4", "setting": "[1]; [6]", "value": 83.8},
      {"measurement": "Normalized weights Day 5", "setting": "[1]; [6]", "value": "98.6 and 90.9 and 91.2 and 79.5 and 92.9"},
      {"measurement": "Normalized weights Day 0", "setting": "[1]; [7]", "value": 100},
      {"measurement": "Normalized weights Day 1", "setting": "[1]; [7]", "value": "102.2 and 103.1 and 105.8 and 99.4 and 106.0 and 101.2"},
      {"measurement": "Normalized weights Day 2", "setting": "[1]; [7]", "value": "95.2 and 96.5 and 95.6 and 90.1 and 90.2"},
      {"measurement": "Normalized weights Day 3", "setting": "[1]; [7]", "value": 92.7},
      {"measurement": "mean normalized weight vs untreated animals", "setting": "[1]; histopathology experiment, NTZ 500mg/kg/day BID oral, at 3 dpi", "value": "significantly lower than that of untreated animals"},
      {"measurement": "Normalized weights Day 0", "setting": "[1]; infected hamsters, nitazoxanide 500mg/kg/day per os BID, Day 0, individual animals", "value": 100},
      {"measurement": "Normalized weights Day 1", "setting": "[1]; infected hamsters, nitazoxanide 500mg/kg/day per os BID, Day 1, individual animals", "value": "100.5 and 102.7 and 103.7 and 103.5"},
      {"measurement": "Normalized weights Day 2", "setting": "[1]; infected hamsters, nitazoxanide 500mg/kg/day per os BID, Day 2, individual animals", "value": "94.1 and 99.3 and 98.2"},
      {"measurement": "Normalized weights Day 3", "setting": "[1]; infected hamsters, nitazoxanide 500mg/kg/day per os BID, Day 3, individual animals", "value": "92.9 and 96.2"},
      {"measurement": "Normalized weights Day 4", "setting": "[1]; infected hamsters, nitazoxanide 500mg/kg/day per os BID, Day 4, individual animals", "value": 86.9},
      {"measurement": "Normalized weights Day 5", "setting": "[1]; infected hamsters, nitazoxanide 500mg/kg/day per os BID, Day 5, individual animals", "value": "90.1 and 88.3 and 85.4 and 93.9"},
      {"measurement": "viral replication in clarified lung homogenates, plasma or nasal turbinates vs untreated", "setting": "SARS-CoV-2; NTZ 2.8mg/kg/day TID intranasal, repeated independent experiment", "value": "no significant differences"},
      {"measurement": "infectious titers in clarified lung homogenates vs untreated", "setting": "SARS-CoV-2; [8]", "value": "significant increase"},
      {"measurement": "infectious titers in nasal turbinates vs untreated", "setting": "SARS-CoV-2; [8]", "value": "no significant differences"},
      {"measurement": "viral RNA load in nasal turbinates vs untreated", "setting": "SARS-CoV-2; [8]", "value": "significant reduction"},
      {"measurement": "viral RNA yields in clarified lung homogenates vs untreated", "setting": "SARS-CoV-2; [8]", "value": "No significant differences"},
      {"measurement": "viral RNA yields in plasma vs untreated", "setting": "SARS-CoV-2; [8]", "value": "No significant differences"},
      {"measurement": "Lung Infectious titers", "setting": "SARS-CoV-2; [3]", "value": "7.738 and 7.565 and 7.260 and 7.126 and 7.436 and 7.154"},
      {"measurement": "Lung Viral RNA yields", "setting": "SARS-CoV-2; [3]", "value": "8.897 and 8.809 and 8.599"},
      {"measurement": "Nasal Turbinates Infectious titers", "setting": "SARS-CoV-2; [3]", "value": "2.483 and 2.551 and 3.472 and 4.082 and 3.115 and 4.229"},
      {"measurement": "Nasal Turbinates Viral RNA yields", "setting": "SARS-CoV-2; [3]", "value": "4.363 and 4.565 and 5.134 and 5.523 and 5.262 and 5.603"},
      {"measurement": "Plasmatic viral RNA yields", "setting": "SARS-CoV-2; [3]", "value": "3.551 and 4.595 and 4.938 and 4.386 and 5.492 and 4.672"},
      {"measurement": "Lung Infectious titers", "setting": "SARS-CoV-2; [4]", "value": "6.420 and 6.814 and 6.658 and 6.401 and 6.100 and 6.859"},
      {"measurement": "Lung Viral RNA yields", "setting": "SARS-CoV-2; [4]", "value": "7.102 and 7.087"},
      {"measurement": "Nasal Turbinates Infectious titers", "setting": "SARS-CoV-2; [4]", "value": "3.220 and 2.494 and 2.987 and 4.228 and 2.922 and 3.399"},
      {"measurement": "Nasal Turbinates Viral RNA yields", "setting": "SARS-CoV-2; [4]", "value": "5.240 and 5.486 and 5.403 and 6.486 and 5.764 and 5.350"}
    ]},
    {"smiles": "O=C(Nc1ncc([N+](=O)[O-])s1)c1ccccc1O", "note": "[TIZ, tizoxanide]", "values": [
      {"measurement": "bound to plasma proteins", "setting": "[2]", "value": 99, "unit": "%"}
    ]}
  ]
}
